According to ChEMBL document CHEMBL3507680, “University of Dundee, Gates Library screen for HepG2 cell viability”:

Test: Human HepG2 cell viability assay in 384 well format
Type: toxicity, cell-based
Design: dose 125 nL, time 70.5 hour; cytotoxicity at 70.5 h: concentration not given beside the values
Conditions: HepG2 cells, read-out: Inhibition

Compound | cytotoxicity at 70.5 h [%]
Clc1cccc(-n2cnnn2)c1N1CCCC1 | 3.81
CC(C)=CCCC(C)(O)c1cc(C(N)=O)no1 (stereo unspecified) | -9.16
COC(=O)C1=NOC(Cc2cc(OC)c3c(c2)OCO3)C1 (stereo unspecified) | -20.2
COc1c(Br)c(CC2CC(CO)=NO2)c(Br)c2c1OCO2 (stereo unspecified) | -7.56
O=C1CC(c2cccnc2)c2c(sc3c2CCCC3)N1 (stereo unspecified) | -3.62
O=C1CC(c2ccncc2)c2c(sc3c2CCCC3)N1 (stereo unspecified) | -13.1
CCOC(=O)c1cc(C(C)(O)CCC=C(C)C)on1 (stereo unspecified) | -9.61
CCOC(=O)C1=NOC(Cc2cc(OC)c3c(c2)OCO3)C1 (stereo unspecified) | 18.8
O=C1CC(c2ccc(C(=O)O)cc2)c2c(sc3c2CCCC3)N1 (stereo unspecified) | -9.3
COc1cc(C2SCC(=O)Nc3[nH]ncc32)cc2c1OCO2 (stereo unspecified) | -10.8
N#CCC1CC(c2ccc(F)cc2)=NO1 (stereo unspecified) | -10
CNc1[nH]nc(N)c1C(=O)Nc1ccc(OC)cc1 | 1.52
O=C1CC(c2ccc3c(c2)OCO3)c2snc(C(=O)O)c2N1 (stereo unspecified) | -10.6
O=C1CC(c2ccc(C(F)(F)F)cc2)c2snc(C(=O)O)c2N1 (stereo unspecified) | -15.6
COc1ccc2c(=O)ccn(CC(=O)O)c2c1 | 1.58
COC(=O)CCn1ccc(=O)c2ccccc21 | -5.76
CN1CCN(C(=O)c2cc(-c3cccs3)cs2)CC1 | -10.5
O=C(NC1CCS(=O)(=O)C1)c1cc(Sc2ncccn2)ccn1 (stereo unspecified) | -13.4
Cc1cc(C)n(CC(=O)Nc2cc(-c3ccncc3)[nH]n2)n1 | -4.82

Compound | cytotoxicity at 70.5 h [%]
Cc1ccn(CC(=O)Nc2cc(-c3ccncc3)[nH]n2)n1 | -2.4
O=C(c1ccc(-c2ccc(O)nc2)s1)N1CCSCC1 | -14
Cc1ncc(CN2CCCC(c3nc4ccccc4n3C(C)C)C2)s1 (stereo unspecified) | -2.93
Cc1cc(N(C)C)nc(C2(C)CCCN2C(=O)c2ccn(C)n2)n1 (stereo unspecified) | -9.18
Cc1ccc(-c2nnc(SCC(=O)O)n2-c2ccccc2)cc1 | -10.9
Cc1cnc(N)c(C(=O)C2CCN(C(=O)c3cnc(C)nc3C)CC2)c1 | -6.36
Cc1cnc(N)c(C(=O)C2CCN(C(=O)c3cnc(C)cn3)CC2)c1 | -13
NCc1cnn(-c2ccccc2C(=O)NCc2ccccc2Cl)c1 | -2.58
COCCN1CCC(c2cncc(-c3cccc(Cl)c3)n2)CC1 | -5.78
CN(C)C(=O)CN1CCC(c2cncc(-c3cccc(Cl)c3)n2)CC1 | -7.08
CC(C)(C)C(=O)N1CCCC(c2ncncc2-c2ccncc2)C1 (stereo unspecified) | -4.45
O=C(c1cccnc1)N1CCCC(c2ncncc2-c2ccncc2)C1 (stereo unspecified) | -5.25
O=C(c1ccccn1)N1CCCC(c2ncncc2-c2ccncc2)C1 (stereo unspecified) | -9.39
COc1cc(C2Nc3cc(Cl)ccc3C3=NCCN32)cc(OC)c1OC (stereo unspecified) | 13.6
COc1ccc(C2Nc3cc(Cl)ccc3C3=NCCN32)cc1CO (stereo unspecified) | 9.73
Cc1cc(-c2cnc(N3CCNC(=O)C3)nc2-c2ccncc2)on1 | 7.7
CN1CCN(c2ncc(-c3cnccn3)c([C@H]3CCCO3)n2)CC1 | -8.8
Cc1n[nH]c(C)c1-c1cnc(C2CCN(S(C)(=O)=O)CC2)cn1 | -6.98
CC(=O)N1CCC(c2cnc(-c3c(C)nn(C)c3C)cn2)CC1 | -9.85

Compound | cytotoxicity at 70.5 h [%]
Cc1cc(CCC(N)=O)cc(C2CCCN2Cc2ccccn2)n1 (stereo unspecified) | -9.69
CC(=O)N1CCCC(c2ccccn2)C1 (stereo unspecified) | 8.66
Cc1nc(C2CN(C)CCO2)cc(N2CCC(CO)CC2)n1 (stereo unspecified) | -4.15
NCCn1nc(C2CCN(Cc3ccccc3)C2)c2nccnc21 (stereo unspecified) | 0.0423
CCCC(=O)N1CCC(c2ncc3c(n2)CCNC3)CC1 | -5.64
CCC(=O)N1CCC(Cc2ccccc2-c2ccncc2)(C(=O)NC)C1 (stereo unspecified) | -7.46
CN1CCCCC1c1ncc2c(n1)CCN(Cc1ccc(F)cc1)C2 (stereo unspecified) | -5.99
CCCC(=O)N1CCC(Cc2ccccc2-c2ccccc2)(C(N)=O)C1 (stereo unspecified) | -6.16
COc1cc(C)c(CN2CCc3nc4ccsc4c(=O)n3CC2)cc1C | 0.311
COc1ccc(CN2CCc3nc4ccsc4c(=O)n3CC2)c(C)c1C | 39.8
CC[C@@H]1C[C@H](C(F)(F)F)n2nc(C3CCN(S(=O)(=O)CC)CC3)cc2N1 | 18.8
CCC(=O)N1CCC2(CC1)CNC(=O)c1cc(C)ccc1O2 | -1.62
Cc1ccc2c(c1)C(=O)NCC1(CCN(Cc3ccccc3)CC1)O2 | -6.17
O=C(Cc1ccccn1)N1CCC(O)(Cn2ccc3ccncc32)CC1 | -6.87
Cc1cc2c(=O)n3c(nc2s1)CCN(C(=O)c1cn(C)nc1C)CC3 | -1.48
Cc1cc(C(=O)N2CCc3nc4sc(C)cc4c(=O)n3CC2)on1 | -2.99
Cc1nc(C)c(C(=O)N2CCc3nc4sc(C)cc4c(=O)n3CC2)o1 | -4.92
Cc1cc2c(=O)n3c(nc2s1)CCN(C(=O)c1ccn(C)n1)CC3 | -5.05
